The values that follow come from patent US20180147187A1, “COMPOUNDS, COMPOSITIONS, AND METHODS FOR INCREASING CFTR ACTIVITY” (Proteostasis Therapeutics, Inc., priority 2006, published 2018).

The target of assay [1] is T1, ΔF508-CFTR (Homo sapiens, UniProt P13569, DEL508-508).
T1 construct: primary lung epithelial cells (hBEs) homozygous for the Cystic Fibrosis-causing ΔF508 mutation; endogenous in cells; host or cells: primary human bronchial epithelial cells (hBE), ΔF508/ΔF508, differentiated at air-liquid interface
T1 sequence (P13569 with tags, fused parts or gaps DEL508-508): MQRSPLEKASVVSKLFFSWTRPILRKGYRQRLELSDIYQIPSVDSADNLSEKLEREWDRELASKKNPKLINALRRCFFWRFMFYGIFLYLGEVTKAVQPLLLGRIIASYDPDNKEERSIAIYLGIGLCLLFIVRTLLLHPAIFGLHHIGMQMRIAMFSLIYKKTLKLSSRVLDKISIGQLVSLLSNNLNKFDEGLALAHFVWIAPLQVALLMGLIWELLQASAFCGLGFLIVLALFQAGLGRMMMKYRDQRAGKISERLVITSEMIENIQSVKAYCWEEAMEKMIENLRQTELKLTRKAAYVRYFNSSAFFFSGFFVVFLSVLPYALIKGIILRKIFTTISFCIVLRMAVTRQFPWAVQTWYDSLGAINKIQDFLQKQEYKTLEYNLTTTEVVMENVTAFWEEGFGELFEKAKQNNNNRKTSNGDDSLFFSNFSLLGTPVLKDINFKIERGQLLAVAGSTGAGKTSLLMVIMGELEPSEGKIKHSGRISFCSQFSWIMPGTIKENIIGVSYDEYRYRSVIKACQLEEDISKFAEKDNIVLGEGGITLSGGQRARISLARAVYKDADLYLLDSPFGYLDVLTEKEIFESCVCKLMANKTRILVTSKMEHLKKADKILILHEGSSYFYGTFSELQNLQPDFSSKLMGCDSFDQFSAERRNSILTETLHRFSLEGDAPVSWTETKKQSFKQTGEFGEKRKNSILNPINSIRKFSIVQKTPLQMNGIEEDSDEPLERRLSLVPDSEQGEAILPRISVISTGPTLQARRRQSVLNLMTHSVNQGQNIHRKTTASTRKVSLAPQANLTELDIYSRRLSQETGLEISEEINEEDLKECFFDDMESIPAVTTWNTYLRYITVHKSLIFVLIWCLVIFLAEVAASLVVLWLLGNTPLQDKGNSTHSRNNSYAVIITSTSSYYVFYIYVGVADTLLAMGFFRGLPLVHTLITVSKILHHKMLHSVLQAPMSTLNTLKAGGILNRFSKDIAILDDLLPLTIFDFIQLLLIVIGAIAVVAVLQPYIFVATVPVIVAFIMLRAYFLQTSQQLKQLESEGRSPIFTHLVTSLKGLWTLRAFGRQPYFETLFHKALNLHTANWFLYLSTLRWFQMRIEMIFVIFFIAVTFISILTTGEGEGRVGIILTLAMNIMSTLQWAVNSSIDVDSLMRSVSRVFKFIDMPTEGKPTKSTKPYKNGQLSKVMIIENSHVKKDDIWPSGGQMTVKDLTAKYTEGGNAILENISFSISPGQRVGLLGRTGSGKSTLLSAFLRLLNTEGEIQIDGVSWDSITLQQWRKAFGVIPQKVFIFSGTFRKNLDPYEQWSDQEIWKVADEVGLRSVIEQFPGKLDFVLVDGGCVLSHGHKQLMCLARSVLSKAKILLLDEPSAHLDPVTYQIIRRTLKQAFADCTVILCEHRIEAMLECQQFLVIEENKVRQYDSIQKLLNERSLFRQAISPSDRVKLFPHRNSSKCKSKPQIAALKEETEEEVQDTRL
Briefly: hBE Equivalent Current (Ieq) Assay. The format is cell-based. The following applies: compound at 10 uM and VX-809 at 1 uM; ΔF508 homozygous hBE, 24 hours; AUC of equivalent chloride current. On the procedure:
Primary lung epithelial cells homozygous for the Cystic Fibrosis-causing ΔF508 mutation were differentiated for a minimum of 4 weeks in an air-liquid interface on Costar 24 well HTS filter plates prior to the equivalent current (Ieq) measurements. Cells were apically mucus-washed for 30 minutes 24 h prior to treatment with compounds. The basolateral media was removed and replaced with media containing the compound of interest diluted to its final concentration from DMSO stocks. Treated cells were incubated at 37° C. and 5% CO2 for 24 hours. At the end of the treatment period, the media was changed to the Ieq experimental solution for 30 minutes before the experiment and plates are maintained in a CO2-free incubator during this period. The plates containing the cells were then placed in pre-warmed heating blocks at 36° C.±0.5 for 15 minutes before measurements are taken. The transepithelial voltage (VT) and conductance (GT) were measured using a custom 24 channel current clamp (TECC-24) with 24 well electrode manifold. The Ieq assay measurements were made following additions with standardized time periods: • 1. The baseline VT and GT values were measured for approximately 20 minutes. • 2. Benzamil was added to block ENaC for 15 minutes. • 3. Forskolin plus VX-770 (ivacaftor) were added to maximally activate ΔF508-CFTR for 27 minutes. • 4. Bumetanide was added to inhibit the NaK2C1 cotransporter and shut-off secretion of chloride.
The activity data captured was the area under the curve (AUC) for the traces of the equivalent chloride current. The AUC was collected from the time of the forskolin/VX-770 addition until the inhibition by bumetanide addition. Correction in response to compound treatment was scored as the increase in the AUC for compound-treated samples over that of vehicle-treated samples.
(§1) (** indicates activity ≥200% of VX-809 (1 uM) with compound at 10 uM and VX-809 at 1 uM; * indicates activity 100-200% of VX-809 (1 uM) with compound at 10 uM and VX-809 at 1 uM. ^## indicates activity ≥200% of VX-809 (3 uM) with compound at 10 uM and VX-809 at 3 uM; ^# indicates activity 100-200% of VX-809 (3 uM) with compound at 10 uM and VX-809 at 3 uM.

Assay [2] has as its target T1, ΔF508-CFTR. Briefly: Ussing measurements, hBEs homozygous for ΔF508. The format is cell-based. Particulars: compound at 10 uM and VX-809 at 3 uM; ΔF508 homozygous hBE, 24 hours; CFTRinh-172 inhibitable current. Here is the method:
As discussed above, Ussing measurements can be used to measure CFTR activity. In this example, primary lung epithelial cells (hBEs) homozygous for the Cystic Fibrosis-causing ΔF508 mutation were differentiated for a minimum of 4 weeks in an air-liquid interface on SnapWell filter plates prior to the Ussing measurements. Cells were apically mucus-washed for 30 minutes prior to treatment with compounds. The basolateral media was removed and replaced with media containing the compound of interest diluted to its final concentration from DMSO stocks. Treated cells were incubated at 37° C. and 5% CO2 for 24 hours. At the end of the treatment period, the cells on filters were transferred to the Ussing chamber and equilibrated for 30 minutes. The short-circuit current was measured in voltage clamp-mode (Vhold=0 mV), and the entire assay was conducted at a temperature of 36° C.-36.5° C. Once the voltages stabilized, the chambers were clamped, and data was recorded by pulse readings every 5 seconds. Following baseline current stabilization, the following additions were applied and the changes in current and resistance of the cells was monitored: • 1. Benzamil to the apical chamber to inhibit ENaC sodium channel. • 2. Forskolin to both chambers to activate ΔF508-CFTR by phosphorylation. • 3. Genistein or VX-770 (ivacaftor) to both chambers to potentiate ΔF508-CFTR channel opening. • 4. CFTRinh-172 to the apical chamber to inhibit ΔF508-CFTR Cl— conductance.
The inhibitable current (that current that is blocked by CFTRinh-172) is measured as the specific activity of the ΔF508-CFTR channel, and increases in response to compound in this activity over that observed in vehicle-treated samples are identified as the correction of ΔF508-CFTR function imparted by the compound tested.
as §1

In assay [3] the test system is CFTR, G551D/F508del HBEs. Briefly: Ussing measurements, class III mutation hBEs (G551D/F508del). The format is cell-based, human. Particulars: VX-661 3 uM, Ivacaftor 1 uM, Compound A 10 uM, 24 hours. Here is the method: (§2) As discussed above, Ussing measurements was used to measure CFTR activity. In this method, primary lung epithelial cells (hBEs) with a Cystic Fibrosis-causing class III mutation were differentiated for a minimum of 4 weeks in an air-liquid interface on SnapWell™ filter plates prior to the Ussing measurements. Cells were apically mucus-washed for 30 minutes prior to treatment with compounds. The basolateral media was removed and replaced with media containing the compound of interest diluted to its final concentration from DMSO stocks. Treated cells were incubated at 37° C. and 5% CO2 for 24 hours. At the end of the treatment period, the cells on filters were transferred to the Ussing chamber and equilibrated for 30 minutes. The short-circuit current was measured in voltage clamp-mode (Vhold=0 mV), and the entire assay was conducted at a temperature of 36° C.-36.5° C. Once the voltages stabilized, the chambers were clamped, and data was recorded by pulse readings every 5 seconds. Following baseline current stabilization, the following additions were applied and the changes in current and resistance of the cells was monitored: • 1. Benzamil to the apical chamber to inhibit ENaC sodium channel. • 2. Forskolin to both chambers to activate ΔF508-CFTR by phosphorylation. • 3. Genistein or VX-770 (ivacaftor) to the apical chamber to potentiate ΔF508-CFTR channel opening. • 4. CFTRinh-172 to the apical chamber to inhibit ΔF508-CFTR Cl— conductance.
(§3) The forskolin-sensitive current and inhibitable current (that potentiated current that is blocked by CFTRinh-172) were measured as the specific activity of the ΔF508-CFTR channel, and increase in response to compound in this activity over that observed in vehicle-treated samples were identified as the correction of ΔF508-CFTR function imparted by the compound tested.
(§4) The results are shown below in Tables 5 and 6. VX-661 is 3 uM, Ivacaftor is 1 uM and Compound A is 10 uM.

Assay [4] concerns CFTR, S549N/F508del HBEs. Briefly: Ussing measurements, class III mutation hBEs (S549N/F508del). The format is cell-based, human. Particulars: Ivacaftor 1 uM, Compound A 10 uM, 24 hours. Here is the method:
as §2, §3, §4

For the molecule `O=C(N[C@H]1C[C@H](n2nncc2CO)C1)c1cc(-c2ccccc2)on1`, the “Ieq (% VX-809)” value in assay [1] is “* (* indicates activity 100-200% of VX-809 (1 uM) with compound at 10 uM and VX-809 at 1 uM)”. In addition, the “Ussing (% VX-809)” value in assay [2] was “## (^## indicates activity ≥200% of VX-809 (3 uM) with compound at 10 uM and VX-809 at 3 uM)”. With `O=C(N[C@H]1C[C@H](n2cc(CO)nn2)C1)c1cc(-c2ccccc2)on1`, in assay [1], the “Ieq (% VX-809)” value was “* (* indicates activity 100-200% of VX-809 (1 uM) with compound at 10 uM and VX-809 at 1 uM)”. Besides, in assay [2], the “Ussing (% VX-809)” value is “## (^## indicates activity ≥200% of VX-809 (3 uM) with compound at 10 uM and VX-809 at 3 uM)”. As for `O=C(N[C@H]1C[C@@H](n2nncc2CO)C1)c1cc(-c2ccccc2)on1`, the “Ieq (% VX-809)” value in assay [1] is “** (** indicates activity ≥200% of VX-809 (1 uM) with compound at 10 uM and VX-809 at 1 uM)”. The “Ussing (% VX-809)” value in assay [2] was “## (^## indicates activity ≥200% of VX-809 (3 uM) with compound at 10 uM and VX-809 at 3 uM)”. Consider `O=C(N[C@H]1C[C@@H](n2cc(CO)nn2)C1)c1cc(-c2ccccc2)on1`, for which, in assay [1], the “Ieq (% VX-809)” value is “** (** indicates activity ≥200% of VX-809 (1 uM) with compound at 10 uM and VX-809 at 1 uM)”. Besides, the “Ussing (% VX-809)” value in assay [2] is “## (^## indicates activity ≥200% of VX-809 (3 uM) with compound at 10 uM and VX-809 at 3 uM)”.

With `C[C@H](O)c1cnnn1[C@H]1C[C@@H](NC(=O)c2cc(-c3ccccc3)on2)C1`, the “Ieq (% VX-809)” value in assay [1] was “** (** indicates activity ≥200% of VX-809 (1 uM) with compound at 10 uM and VX-809 at 1 uM)”. Also, the “Ussing (% VX-809)” value in assay [2] is “## (^## indicates activity ≥200% of VX-809 (3 uM) with compound at 10 uM and VX-809 at 3 uM)”. With `C[C@@H](O)c1cnnn1[C@H]1C[C@@H](NC(=O)c2cc(-c3ccccc3)on2)C1`, the “Ieq (% VX-809)” value in assay [1] was “** (** indicates activity ≥200% of VX-809 (1 uM) with compound at 10 uM and VX-809 at 1 uM)”.

For `C[C@H](O)c1cn([C@H]2C[C@@H](NC(=O)c3cc(-c4ccccc4)on3)C2)nn1`, the “Ieq (% VX-809)” value in assay [1] was “** (** indicates activity ≥200% of VX-809 (1 uM) with compound at 10 uM and VX-809 at 1 uM)”. Take `C[C@@H](O)c1cn([C@H]2C[C@@H](NC(=O)c3cc(-c4ccccc4)on3)C2)nn1`: in assay [1], the “Ieq (% VX-809)” value was “** (** indicates activity ≥200% of VX-809 (1 uM) with compound at 10 uM and VX-809 at 1 uM)”.

Consider `O=C(N[C@H]1C[C@@H](Cc2nnc(CO)s2)C1)c1cc(-c2ccccc2)on1`, for which, in assay [1], the “Ieq (% VX-809)” value was “** (** indicates activity ≥200% of VX-809 (1 uM) with compound at 10 uM and VX-809 at 1 uM)”. Also, the “Ussing (% VX-809)” value in assay [2] was “## (^## indicates activity ≥200% of VX-809 (3 uM) with compound at 10 uM and VX-809 at 3 uM)”.

As to `O=C(N[C@H]1C[C@H](Cc2nnc(CO)s2)C1)c1cc(-c2ccccc2)on1`, the “Ieq (% VX-809)” value in assay [1] is “** (** indicates activity ≥200% of VX-809 (1 uM) with compound at 10 uM and VX-809 at 1 uM)”.

For the molecule `O=C(NC[C@H]1C[C@@H](c2nnc(CO)s2)C1)c1cc(-c2ccccc2)on1`, the “Ieq (% VX-809)” value in assay [1] was “** (** indicates activity ≥200% of VX-809 (1 uM) with compound at 10 uM and VX-809 at 1 uM)”.

Take `O=C(NC[C@H]1C[C@H](c2nnc(CO)s2)C1)c1cc(-c2ccccc2)on1`: the “Ieq (% VX-809)” value in assay [1] was “** (** indicates activity ≥200% of VX-809 (1 uM) with compound at 10 uM and VX-809 at 1 uM)”. On to `O=C(N[C@H]1C[C@@H](c2nnc(CO)s2)C1)c1cc(-c2ccccc2)on1`, for which, in assay [1], the “Ieq (% VX-809)” value was “** (** indicates activity ≥200% of VX-809 (1 uM) with compound at 10 uM and VX-809 at 1 uM)”. With `O=C(NC1CC(c2nnc(CO)o2)C1)c1cc(-c2ccccc2)on1` (centres unmarked), the “Ussing (% VX-809)” value in assay [2] was “## (^## indicates activity ≥200% of VX-809 (3 uM) with compound at 10 uM and VX-809 at 3 uM)”. The same measure, in the same setting: then `C[C@H](O)c1nnc(C2CC(NC(=O)c3cc(-c4ccccc4)on3)C2)o1` (some centres unmarked), with “## (^## indicates activity ≥200% of VX-809 (3 uM) with compound at 10 uM and VX-809 at 3 uM)”. As for `C[C@@H](O)c1nnc(C2CC(NC(=O)c3cc(-c4ccccc4)on3)C2)o1` (some centres unmarked), the “Ussing (% VX-809)” value in assay [2] was “## (^## indicates activity ≥200% of VX-809 (3 uM) with compound at 10 uM and VX-809 at 3 uM)”. Consider `O=C(N[C@H]1C[C@@H](n2cc(CO)cn2)C1)c1cc(-c2ccccc2)on1`, for which the “Ieq (% VX-809)” value in assay [1] was “* (* indicates activity 100-200% of VX-809 (1 uM) with compound at 10 uM and VX-809 at 1 uM)”.

As to `O=C(N[C@H]1C[C@@H](n2ccc(CO)n2)C1)c1cc(-c2ccccc2)on1`, the “Ieq (% VX-809)” value in assay [1] is “** (** indicates activity ≥200% of VX-809 (1 uM) with compound at 10 uM and VX-809 at 1 uM)”.

`CC(C)(CO)c1cc2cc(NC(=O)C3(c4ccc5c(c4)OC(F)(F)O5)CC3)c(F)cc2n1C[C@@H](O)CO` [VX-661, 1-(2,2-difluoro-1,3-benzodioxol-5-yl)-N-[1-[(2R)-2,3-dihydroxypropyl]-6-fluoro-2-(2-hydroxy-1,1-dimethylethyl)-1H-indol-5-yl]-cyclopropanecarboxamide]: the “Activity in G551D/F508del HBEs” value in assay [3] is reported as 3.8 uAMP/cm^2. Consider `Cc1ccc(NC(=O)C2(c3ccc4c(c3)OC(F)(F)O4)CC2)nc1-c1cccc(C(=O)O)c1` [VX-809, 3-(6-(1-(2,2-difluorobenzo[d][1,3]dioxol-5-yl)cyclopropanecarboxamido)-3-methylpyridin-2-yl)benzoic acid], for which the “Activity in S549N/F508del HBEs” value in assay [4] was 6.4 uAMP/cm^2.
